Assay results taken from patent publication US20090239840A1, “AMINO SUBSTITUTED DIARYL[a,d]CYCLOHEPTENE ANALOGS AS [sequence] AGONISTS AND METHODS OF TREATMENT OF NEUROPSYCHIATRIC DISORDERS” (ACADIA PHARMACEUTICALS, INC., priority 2003, published 2009).
pEC50: −log10 of the molar value. Where two headings read alike, the source gives them in different places.

Key:
muscarinic M1 receptor = target: T1, muscarinic M1 receptor (Homo sapiens, UniProt P11229); experiment: R-SAT functional screen, M1; type: cell-based; conditions: for Emax: read-out: M1 eff (efficacy); for EC50: read-out: M1 pEC50 (converted)
T1 construct: expressed in transfected cells
T1 sequence (P11229 1-460): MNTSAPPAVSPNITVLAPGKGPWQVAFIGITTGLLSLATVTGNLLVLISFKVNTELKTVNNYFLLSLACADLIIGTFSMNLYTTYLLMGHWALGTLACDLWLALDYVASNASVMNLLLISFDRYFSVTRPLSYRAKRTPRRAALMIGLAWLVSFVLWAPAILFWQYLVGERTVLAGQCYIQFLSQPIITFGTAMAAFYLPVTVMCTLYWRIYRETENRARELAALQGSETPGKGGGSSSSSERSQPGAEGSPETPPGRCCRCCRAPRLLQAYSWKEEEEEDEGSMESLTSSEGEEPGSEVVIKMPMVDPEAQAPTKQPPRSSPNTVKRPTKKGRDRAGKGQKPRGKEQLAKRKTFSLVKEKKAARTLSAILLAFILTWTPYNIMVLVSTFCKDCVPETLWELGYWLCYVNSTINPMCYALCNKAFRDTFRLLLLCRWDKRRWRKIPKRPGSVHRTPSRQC
Method: (§1) Several compounds disclosed herein were evaluated for activity at muscarinic receptors using Receptor Selection and Amplification Technology (R-SAT) as described in U.S. Pat. No. 5,707,798, the disclosure of which is incorporated herein by reference in its entirety. The efficacy (eff) and potency (expressed as pEC50) of these compounds are presented in Table 1 at M1, M2, and M3 receptors.

muscarinic M2 receptor = target: T2, muscarinic M2 receptor (Homo sapiens, UniProt P08172); experiment: R-SAT functional screen, M2; type: cell-based; conditions: for Emax: read-out: M2 eff (efficacy); for EC50: read-out: M2 pEC50 (converted)
T2 construct: expressed in transfected cells
T2 sequence (P08172 1-466): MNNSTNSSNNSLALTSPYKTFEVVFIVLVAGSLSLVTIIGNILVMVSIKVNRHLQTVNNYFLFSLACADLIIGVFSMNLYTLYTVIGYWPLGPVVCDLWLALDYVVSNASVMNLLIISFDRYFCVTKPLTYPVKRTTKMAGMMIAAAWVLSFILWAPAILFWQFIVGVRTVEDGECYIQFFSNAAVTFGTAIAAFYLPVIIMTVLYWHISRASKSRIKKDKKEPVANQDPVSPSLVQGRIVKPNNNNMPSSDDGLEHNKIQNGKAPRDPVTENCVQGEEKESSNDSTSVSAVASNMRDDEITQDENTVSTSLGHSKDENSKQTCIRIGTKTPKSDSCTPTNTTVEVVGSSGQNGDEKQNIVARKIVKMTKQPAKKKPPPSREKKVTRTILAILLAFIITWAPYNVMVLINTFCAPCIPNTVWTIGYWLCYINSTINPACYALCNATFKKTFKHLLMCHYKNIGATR
Method: as §1

muscarinic M3 receptor = target: T3, muscarinic M3 receptor (Homo sapiens, UniProt P20309); experiment: R-SAT functional screen, M3; type: cell-based
T3 construct: expressed in transfected cells
Description: The term “modulate” refers to the ability of a compound disclosed herein to alter the function of a muscarinic receptor. A modulator may activate the activity of a muscarinic receptor, may activate or inhibit the activity of a muscarinic receptor depending on the concentration of the compound exposed to the muscarinic receptor, or may inhibit the activity of a muscarinic receptor. The term “modulate” also refers to altering the function of a muscarinic receptor by increasing or decreasing the probability that a complex forms between a muscarinic receptor and a natural binding partner. A modulator may increase the probability that such a complex forms between the muscarinic receptor and the natural binding partner, may increase or decrease the probability that a complex forms between the muscarinic receptor and the natural binding partner depending on the concentration of the compound exposed to the muscarinic receptor, and or may decrease the probability that a complex forms between the muscarinic receptor and the natural binding partner. In some embodiments, modulation of the muscarinic receptor may be assessed using Receptor Selection and Amplification Technology (R-SAT) as described in U.S. Pat. No. 5,707,798, the disclosure of which is incorporated herein by reference in its entirety.
as §1

[1] = test system: hyperactivity induced by MK-801; experiment: MK-801 induced hyperactivity mouse model; type: in vivo; conditions: mice, salts of the compounds
Method: (§2) Five of the compounds listed in Table 2 were tested in an in vivo assay predictive of antipsychotic activity. Salts of these compounds where administered to mice having hyperactivity induced by amphetamine or MK-801 administration. The compounds were administered both subcutaneously (sc) and orally (po).

[2] = test system: hyperactivity induced by amphetamine; experiment: Amphetamine induced hyperactivity mouse model; type: in vivo; conditions: mice, salts of the compounds
Method: as §2

novel object recognition = experiment: Novel object recognition (NOR) assay; type: in vivo; conditions: mice, dose approx. ID75 in MK-801 hyperactivity assay
Method: Salts of the compounds were administered to mice at one hour post-training (a time-point at which animals normally behaviorally discriminate between novel and familiar objects) and two hours post-training (a time-point at which these animals normally no longer discriminate between objects). Doses were selected to correspond to the approximate ID75 value in the MK-801 hyperactivity assay.

T3 sequence (P20309 whole entry): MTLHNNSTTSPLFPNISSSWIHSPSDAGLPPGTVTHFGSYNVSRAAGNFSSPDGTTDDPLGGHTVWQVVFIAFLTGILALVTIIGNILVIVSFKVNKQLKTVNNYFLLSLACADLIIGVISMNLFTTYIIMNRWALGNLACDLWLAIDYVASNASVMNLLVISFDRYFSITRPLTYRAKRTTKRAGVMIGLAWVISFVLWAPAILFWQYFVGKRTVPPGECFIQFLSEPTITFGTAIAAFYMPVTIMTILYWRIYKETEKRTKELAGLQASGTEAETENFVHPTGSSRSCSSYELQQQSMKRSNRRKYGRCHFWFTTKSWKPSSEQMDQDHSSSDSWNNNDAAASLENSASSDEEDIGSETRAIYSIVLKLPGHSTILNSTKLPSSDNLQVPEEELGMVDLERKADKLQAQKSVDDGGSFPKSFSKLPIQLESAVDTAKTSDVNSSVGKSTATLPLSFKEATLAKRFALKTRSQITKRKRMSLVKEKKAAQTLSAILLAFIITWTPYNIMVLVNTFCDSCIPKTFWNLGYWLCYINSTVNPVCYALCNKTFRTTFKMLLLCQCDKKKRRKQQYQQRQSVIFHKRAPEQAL

## Clc1ccc2c(c1)N=C(N1CCNCC1)c1cccc(Cl)c1N2 [4,8-Dichloro-11-(piperazin-1-yl)-5H-dibenzo[b,e][1,4]diazepine]
Muscarinic M1 receptor; R-SAT
  Emax: 78%
  EC50: 63.1 nM
Muscarinic M2 receptor; R-SAT
  Emax: 118%
  EC50: 1000 nM
Muscarinic M3 receptor
  M3 eff (efficacy): 44
Muscarinic M3 receptor; read-out: M3 pEC50 (converted)
  EC50: 158 nM

## Clc1cccc2c1C(N1CCNCC1)=Nc1cc(Br)ccc1N2 [8-Bromo-1-chloro-11-(piperazin-1-yl)-5H-dibenzo[b,e][1,4]diazepine]
Muscarinic M1 receptor; R-SAT
  Emax: 66%
  EC50: 126 nM
Muscarinic M2 receptor; R-SAT
  Emax: 105%
  EC50: 2510 nM
Muscarinic M3 receptor
  M3 eff (efficacy): 4

## Brc1ccc2c(c1)N=C(N1CCNCC1)c1ccccc1N2 [8-Bromo-11-(piperazin-1-yl)-5H-dibenzo[b,e][1,4]diazepine]
Muscarinic M1 receptor; R-SAT
  Emax: 63%
  EC50: 63.1 nM
Muscarinic M2 receptor; R-SAT
  Emax: 121%
  EC50: 501 nM
Muscarinic M3 receptor
  M3 eff (efficacy): 13

## Cc1cccc2c1Nc1ccc(Cl)cc1N=C2N1CCNCC1 [8-Chloro-4-methyl-11-(piperazin-1-yl)-5H-dibenzo[b,e][1,4]diazepine]
Muscarinic M1 receptor; R-SAT
  Emax: 92%
  EC50: 63.1 nM
Muscarinic M2 receptor; R-SAT
  Emax: 162%
  EC50: 1000 nM
Muscarinic M3 receptor
  M3 eff (efficacy): 16

## Clc1ccc2c(c1)N=C(N1CCCCC1)c1ccccc1N2 [8-Chloro-11-(piperidin-1-yl)-5H-dibenzo[b,e][1,4]diazepine]
Muscarinic M1 receptor; R-SAT
  Emax: 47%
  EC50: 1580 nM
Muscarinic M2 receptor; R-SAT
  Emax: 9%

## Clc1ccc2c(c1)N=C(C1CCNCC1)c1ccccc1N2 [8-Chloro-11-(piperidin-4-yl)-5H-dibenzo[b,e][1,4]diazepine]
Muscarinic M1 receptor; R-SAT
  Emax: 57%
  EC50: 631 nM
Muscarinic M2 receptor; R-SAT
  Emax: 31%
  EC50: 2000 nM

## Clc1ccc2c(c1)N=C(c1ccncc1)c1ccccc1N2 [8-Chloro-11-(pyridin-4-yl)-5H-dibenzo[b,e][1,4]diazepine]
Muscarinic M1 receptor; R-SAT
  Emax: 6%
Muscarinic M2 receptor; R-SAT
  Emax: 6%

## Clc1ccc2c(c1)N=C(N1CCCNCC1)c1ccccc1N2 [8-Chloro-11-[1,4]diazepam-1-yl-5H-dibenzo[b,e][1,4]diazepine]
Muscarinic M1 receptor
  pEC50: 7.00
  Emax: 37%
Muscarinic M2 receptor
  pEC50: 6.20
  Emax: 82%

## Fc1ccc2c(c1)N=C(N1CCNCC1)c1ccccc1N2 [8-Fluoro-11-(piperazin-1-yl)-5H-dibenzo[b,e][1,4]diazepine]
Muscarinic M1 receptor; R-SAT
  Emax: 32%
  EC50: 200 nM
Muscarinic M2 receptor; R-SAT
  Emax: 95%
  EC50: 2000 nM

## Fc1ccc2c(c1)N=C(N1CCCNCC1)c1ccccc1N2 [8-Fluoro-11-[1,4]diazepam-1-yl-5H-dibenzo[b,e][1,4]diazepine]
Muscarinic M1 receptor
  pEC50: 6.70
  Emax: 25%
Muscarinic M2 receptor
  pEC50: 6.60
  Emax: 67%

## Ic1ccc2c(c1)N=C(N1CCNCC1)c1ccccc1N2 [8-Iodo-11-(piperazin-1-yl)-5H-dibenzo[b,e][1,4]diazepine]
Muscarinic M1 receptor; R-SAT
  Emax: 75%
  EC50: 63.1 nM
Muscarinic M2 receptor; R-SAT
  Emax: 187%
  EC50: 1000 nM

## Cc1ccc2c(c1)N=C(N1CCNCC1)c1ccccc1N2 [8-Methyl-11-(piperazin-1-yl)-5H-dibenzo[b,e][1,4]diazepine]
Muscarinic M1 receptor; R-SAT
  Emax: 49%
  EC50: 158 nM
Muscarinic M2 receptor; R-SAT
  Emax: 98%
  EC50: 1000 nM

## c1ccc2c(c1)Sc1cc3c(cc1N=C2N1CCNCC1)OCCO3 [11-(piperazin-1-yl)-2,3-dihydro-1,4-benzodioxino[6,7-b][1,4]benzothiazepin]
Muscarinic M1 receptor; R-SAT
  Emax: 6%
Muscarinic M2 receptor; R-SAT
  Emax: 28%

## N#Cc1ccc2c(c1)N=C(N1CCNCC1)c1ccccc1N2 [11-(piperazin-1-yl)-5H-dibenzo[b,e][1,4]diazepine-8-carbonitrile]
Muscarinic M1 receptor; R-SAT
  Emax: 49%
  EC50: 251 nM
Muscarinic M2 receptor; R-SAT
  Emax: 106%
  EC50: 1000 nM

## c1ccc2c(c1)N=C(N1CCNCC1)c1ccccc1N2 [11-(piperazin-1-yl)-5H-dibenzo[b,e][1,4]diazepine]
Muscarinic M1 receptor; R-SAT
  Emax: 38%
  EC50: 794 nM
Muscarinic M2 receptor; R-SAT
  Emax: 70%
  EC50: 2510 nM

## FC(F)(F)c1ccc2c(c1)N=C(N1CCNCC1)c1ccccc1N2 [11-(piperazin-1-yl)-8-trifluoromethyl-5H-dibenzo[b,e][1,4]diazepine]
Muscarinic M1 receptor; R-SAT
  Emax: 53%
  EC50: 316 nM
Muscarinic M2 receptor; R-SAT
  Emax: 131%
  EC50: 3160 nM

## c1ccc2c(c1)N=C(N1CCNCC1)c1ccccc1S2 [11-(piperazin-1-yl)-dibenzo[b,f][1,4]thiazepin]
Muscarinic M1 receptor; R-SAT
  Emax: 4%
Muscarinic M2 receptor; R-SAT
  Emax: 41%
  EC50: 316 nM

## c1ccc2c(c1)N=C(N1CCCNCC1)c1ccccc1N2 [11-[1,4]Diazepam-1-yl-5H-dibenzo[b,e][1,4]diazepine]
Muscarinic M1 receptor
  Emax: 18%
Muscarinic M2 receptor
  Emax: 25%

## Clc1ccc2c(c1)N=C(NC[C@H]1CCCN1)c1ccccc1N2 [(8-Chloro-5H-dibenzo[b,e][1,4]diazepin-11-yl)-(R)-1-pyrrolidin-2-yl-methyl-amine]
Muscarinic M1 receptor; R-SAT
  Emax: 4%
Muscarinic M2 receptor; R-SAT
  Emax: 5%

## Clc1ccc2c(c1)N=C(NC[C@@H]1CCCN1)c1ccccc1N2 [(8-Chloro-5H-dibenzo[b,e][1,4]diazepin-11-yl)-(S)-1-pyrrolidin-2-yl-methyl-amine]
Muscarinic M1 receptor; R-SAT
  Emax: 77%
  EC50: 501 nM
Muscarinic M2 receptor; R-SAT
  Emax: 23%

## Clc1ccc2c(c1)N=C(NC1CCNC1)c1ccccc1N2 (stereo not shown) [(8-Chloro-5H-dibenzo[b,e][1,4]diazepin-11-yl)-pyrrolidin-3-yl-amine]
Muscarinic M1 receptor; R-SAT
  Emax: 10%
Muscarinic M2 receptor; R-SAT
  Emax: 18%

## CN1CCN(C2=Nc3cc(Cl)ccc3Nc3ccccc32)CC1 [Clozapine, clozapine, reference compound]
[1]; po
  MK-801 model (ID50 mg/kg po): 0.6 mg/kg
[1]; sc
  MK-801 model (ID50 mg/kg sc): 0.5 mg/kg
[2]; po
  Amphetamine model (ID50 mg/kg po): 10 mg/kg
[2]; sc
  Amphetamine model (ID50 mg/kg sc): 1.4 mg/kg
Novel object recognition
  NOR - 60 minutes post training: not retained
  NOR - 120 minutes post training: not retained
Novel object recognition; listed as clozapine
  NOR - 60 minutes post training: abolished novel object recognition
  NOR - 120 minutes post training: cognitive impairing effects

## CN(C)CCNC1=Nc2ccccc2Nc2ccccc21 [N′-(5H-Dibenzo[b,e][1,4]diazepine-11-yl)-N,N-dimethyl-ethane-12-diamine]
Muscarinic M1 receptor; R-SAT
  Emax: 10%
Muscarinic M2 receptor; R-SAT
  Emax: 20%

## CCN(CC)CCNC1=Nc2cc(Cl)ccc2Nc2ccccc21 [N′-(8-Chloro-5H-dibenzo[b,e][1,4]diazepine-11-yl)-N,N-diethyl-ethane-1,2-diamine]
Muscarinic M1 receptor; R-SAT
  Emax: 6%
Muscarinic M2 receptor; R-SAT
  Emax: 9%

## CN(C)CCNC1=Nc2cc(Cl)ccc2Nc2ccccc21 [N′-(8-Chloro-5H-dibenzo[b,e][1,4]diazepine-11-yl)-N,N-dimethyl-ethane-1,2-diamine]
Muscarinic M1 receptor; R-SAT
  Emax: 4%
Muscarinic M2 receptor; R-SAT
  Emax: 11%

## CNCCNC1=Nc2cc(Cl)ccc2Nc2ccccc21 [N′-(8-Chloro-5H-dibenzo[b,e][1,4]diazepine-11-yl)-N-methyl-ethane-12-diamine]
Muscarinic M1 receptor; R-SAT
  Emax: 5%
Muscarinic M2 receptor; R-SAT
  Emax: 8%

## CN(C)CCNC1=Nc2cc(F)ccc2Nc2ccccc21 [N′-(8-Fluoro-5H-dibenzo[b,e][1,4]diazepine-11-yl)-N,N-dimethyl-ethane-1,2-diamine]
Muscarinic M1 receptor; R-SAT
  Emax: 7%
Muscarinic M2 receptor; R-SAT
  Emax: 21%
